Experiment [1] has as its target T1, SMARCA2-HiBiT (Homo sapiens, UniProt P51531).
T1 construct: SMARCA2-HiBiT knock-in Hela monoclonal cell (CS302366); host or cells: HeLa monoclonal knock-in line (CRISPR HiBiT knock-in at the endogenous locus, heterozygous)
The experiment is described as follows: SMARCA2 HiBiT degradation assay in HeLa cells. The experiment is classed as cell-based. To be noted: 18 hours incubation; for DC50: read-out: HeLa_HiBit-SM2 DC50; for Dmax: HeLa, read-out: HeLa-HiBit-SM2 Dmax (%). A digest of the protocol:
(§1)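 HeLa monoclonal lines with heterozygous HiBiT knock-in were seeded at 2500 cells/well in EMEM with 10% FBS and treated with compound for 18 h at 37 °C. Remaining tagged protein was measured by Nano-Glo HiBiT lytic luminescence after 30–60 min at RT, and values came from curve fitting.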

The target of experiment [2] is T2, SMARCA4-HiBiT (Homo sapiens, UniProt P51532).
T2 construct: SMARCA4-HiBiT knock-in Hela monoclonal cell (CS3023226); host or cells: HeLa monoclonal knock-in line (CRISPR HiBiT knock-in at the endogenous locus, heterozygous)
T2 sequence (P51532 whole entry): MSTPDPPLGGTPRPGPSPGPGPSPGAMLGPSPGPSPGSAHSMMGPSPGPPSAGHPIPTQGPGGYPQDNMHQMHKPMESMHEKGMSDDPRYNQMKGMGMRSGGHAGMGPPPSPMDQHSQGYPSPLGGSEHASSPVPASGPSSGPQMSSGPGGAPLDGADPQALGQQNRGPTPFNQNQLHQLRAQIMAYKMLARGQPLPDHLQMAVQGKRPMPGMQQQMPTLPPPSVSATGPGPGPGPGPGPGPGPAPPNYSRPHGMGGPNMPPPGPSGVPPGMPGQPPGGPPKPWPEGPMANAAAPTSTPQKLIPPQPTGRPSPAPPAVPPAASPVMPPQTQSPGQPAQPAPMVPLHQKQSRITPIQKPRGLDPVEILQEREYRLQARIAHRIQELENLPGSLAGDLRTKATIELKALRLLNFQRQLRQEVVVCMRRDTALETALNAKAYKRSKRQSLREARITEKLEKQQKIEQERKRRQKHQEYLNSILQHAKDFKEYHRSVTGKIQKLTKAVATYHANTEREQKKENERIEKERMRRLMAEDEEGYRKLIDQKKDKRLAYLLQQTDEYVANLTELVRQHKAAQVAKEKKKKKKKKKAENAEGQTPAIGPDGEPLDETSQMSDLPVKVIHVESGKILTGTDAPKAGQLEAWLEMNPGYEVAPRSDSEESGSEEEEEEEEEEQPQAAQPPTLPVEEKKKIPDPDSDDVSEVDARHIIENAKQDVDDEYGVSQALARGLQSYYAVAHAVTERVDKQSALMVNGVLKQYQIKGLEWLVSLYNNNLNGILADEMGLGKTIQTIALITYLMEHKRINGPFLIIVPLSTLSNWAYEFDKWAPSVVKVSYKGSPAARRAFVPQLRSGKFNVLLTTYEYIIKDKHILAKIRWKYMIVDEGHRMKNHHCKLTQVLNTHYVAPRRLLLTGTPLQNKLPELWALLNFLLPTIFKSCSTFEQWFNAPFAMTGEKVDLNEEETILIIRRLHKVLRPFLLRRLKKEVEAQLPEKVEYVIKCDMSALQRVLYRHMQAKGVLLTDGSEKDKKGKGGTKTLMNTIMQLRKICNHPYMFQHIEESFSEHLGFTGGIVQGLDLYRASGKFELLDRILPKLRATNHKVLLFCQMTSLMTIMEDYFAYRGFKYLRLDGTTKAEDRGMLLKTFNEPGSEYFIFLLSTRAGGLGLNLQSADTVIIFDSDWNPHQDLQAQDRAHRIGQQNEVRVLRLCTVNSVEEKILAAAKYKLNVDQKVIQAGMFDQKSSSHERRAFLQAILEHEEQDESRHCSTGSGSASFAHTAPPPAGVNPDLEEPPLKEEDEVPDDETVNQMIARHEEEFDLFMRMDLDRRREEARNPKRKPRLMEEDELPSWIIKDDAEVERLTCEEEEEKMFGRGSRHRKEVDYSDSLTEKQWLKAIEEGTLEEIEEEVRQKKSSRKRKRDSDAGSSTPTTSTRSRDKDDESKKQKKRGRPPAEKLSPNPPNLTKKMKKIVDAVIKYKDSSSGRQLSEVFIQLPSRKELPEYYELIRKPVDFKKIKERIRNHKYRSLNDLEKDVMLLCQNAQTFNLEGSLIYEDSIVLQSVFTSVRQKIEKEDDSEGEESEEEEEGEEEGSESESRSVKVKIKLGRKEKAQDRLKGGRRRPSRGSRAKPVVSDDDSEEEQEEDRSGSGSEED
Briefly: SMARCA4 HiBiT degradation assay in HeLa cells. The experiment is classed as cell-based. The note with it: 18 hours incubation; for DC50: read-out: HeLa-HiBit-SM4 DC50; for Dmax: HeLa, read-out: HeLa-HiBit-SM4 Dmax (%). A digest of the protocol: as §1
Background: The HiBiT peptide binds its large partner to form an active luciferase.

T1 sequence (P51531 whole entry): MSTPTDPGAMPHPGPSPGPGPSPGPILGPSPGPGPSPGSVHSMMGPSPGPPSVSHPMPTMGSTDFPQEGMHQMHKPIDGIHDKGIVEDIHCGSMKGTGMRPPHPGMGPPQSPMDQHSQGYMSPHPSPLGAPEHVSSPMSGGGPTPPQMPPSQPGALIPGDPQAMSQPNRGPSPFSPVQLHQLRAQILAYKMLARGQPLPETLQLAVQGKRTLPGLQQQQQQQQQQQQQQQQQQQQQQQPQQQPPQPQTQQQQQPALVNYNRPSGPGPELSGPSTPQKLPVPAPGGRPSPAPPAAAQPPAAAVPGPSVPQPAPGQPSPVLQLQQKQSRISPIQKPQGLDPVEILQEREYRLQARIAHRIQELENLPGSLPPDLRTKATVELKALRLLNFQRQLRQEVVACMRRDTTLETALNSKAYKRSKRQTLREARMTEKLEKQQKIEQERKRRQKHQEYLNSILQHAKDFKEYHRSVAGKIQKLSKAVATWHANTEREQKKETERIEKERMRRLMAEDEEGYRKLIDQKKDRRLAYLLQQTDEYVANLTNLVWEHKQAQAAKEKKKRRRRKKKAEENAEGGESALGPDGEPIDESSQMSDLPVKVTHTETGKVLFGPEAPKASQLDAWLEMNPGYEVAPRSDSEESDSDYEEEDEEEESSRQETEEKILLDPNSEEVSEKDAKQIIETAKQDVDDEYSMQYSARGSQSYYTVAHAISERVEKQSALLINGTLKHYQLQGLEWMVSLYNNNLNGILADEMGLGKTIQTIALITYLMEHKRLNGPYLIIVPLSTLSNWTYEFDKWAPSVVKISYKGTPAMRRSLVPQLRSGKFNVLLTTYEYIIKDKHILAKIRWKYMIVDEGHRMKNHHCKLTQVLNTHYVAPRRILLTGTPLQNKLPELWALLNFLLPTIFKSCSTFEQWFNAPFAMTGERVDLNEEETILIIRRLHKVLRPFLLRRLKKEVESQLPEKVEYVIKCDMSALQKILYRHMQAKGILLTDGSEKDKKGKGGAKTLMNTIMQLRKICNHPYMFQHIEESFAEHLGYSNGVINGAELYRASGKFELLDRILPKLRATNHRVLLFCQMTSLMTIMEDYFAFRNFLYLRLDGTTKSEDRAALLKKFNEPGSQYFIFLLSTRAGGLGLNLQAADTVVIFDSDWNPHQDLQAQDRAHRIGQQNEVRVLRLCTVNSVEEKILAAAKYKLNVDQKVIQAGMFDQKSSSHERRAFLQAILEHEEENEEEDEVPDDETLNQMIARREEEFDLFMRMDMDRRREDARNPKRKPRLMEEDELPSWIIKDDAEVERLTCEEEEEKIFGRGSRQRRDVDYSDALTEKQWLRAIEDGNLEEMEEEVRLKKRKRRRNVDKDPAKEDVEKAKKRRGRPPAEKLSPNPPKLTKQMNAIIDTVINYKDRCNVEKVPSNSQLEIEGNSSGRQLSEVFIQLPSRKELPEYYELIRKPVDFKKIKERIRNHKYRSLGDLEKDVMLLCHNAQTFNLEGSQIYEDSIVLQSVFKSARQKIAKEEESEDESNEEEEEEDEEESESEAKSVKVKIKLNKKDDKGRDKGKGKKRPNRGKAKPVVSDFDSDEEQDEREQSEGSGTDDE

Turning to `CN(CCN1CCC(CN2CCN3c4cc(-c5ccccc5O)nnc4NC[C@H]3C2)CC1)c1ccc2c(c1)C(=O)N(C1CCC(=O)NC1=O)C2=O` (stereo partly drawn) [Example 246, 2-(2,6-dioxopiperidin-3-yl)-5-((2-(4-(((S)-2-(2-hydroxyphenyl)-5,6,6a,7,9,10-hexahydro-8H-pyrazino[1′,2′:4,5]pyrazino[2,3-c]pyridazin-8-yl)methyl)piperidin-1-yl)ethyl)(methyl)amino)isoindoline-1,3-dione], in experiment [1], the DC50 was < 10 nM and the Dmax lay within 75 to 85%. In addition, in experiment [2], the DC50 was < 10 nM and the Dmax was in the range of 50 to 75%.

With `O=C1CCC(N2C(=O)c3ccc(N4CC(CN5CCC(CN6CCN7c8cc(-c9ccccc9O)nnc8NC[C@H]7C6)CC5)C4)cc3C2=O)C(=O)N1` (stereo partly drawn) [Example 247, 2-(2,6-dioxopiperidin-3-yl)-5-(3-((4-(((S)-2-(2-hydroxyphenyl)-5,6,6a,7,9,10-hexahydro-8H-pyrazino[1′,2′:4,5]pyrazino[2,3-c]pyridazin-8-yl)methyl)piperidin-1-yl)methyl)azetidin-1-yl)isoindoline-1,3-dione], in experiment [1], the DC50 is < 10 nM and the Dmax is > 85%. For the same molecule, in experiment [2], the DC50 is < 10 nM and the Dmax was > 85%.

Consider `CC(C1CCN(c2ccc3c(c2)C(=O)N(C2CCC(=O)NC2=O)C3=O)CC1)N1CCC(CCCN2CCN3c4cc(-c5ccccc5O)nnc4NC[C@H]3C2)CC1` (stereo partly drawn) [Example 248, 2-(2,6-dioxopiperidin-3-yl)-5-(4-(1-(4-(3-((S)-2-(2-hydroxyphenyl)-5,6,6a,7,9,10-hexahydro-8H-pyrazino[1′,2′:4,5]pyrazino[2,3-c]pyridazin-8-yl)propyl)piperidin-1-yl)ethyl)piperidin-1-yl)isoindoline-1,3-dione], for which, in experiment [1], the DC50 was < 10 nM and the Dmax was > 85%. Further, in experiment [2], the DC50 is < 10 nM and the Dmax was > 85%.

`CC(CN1CCN2c3cc(-c4ccccc4O)nnc3NC[C@H]2C1)C1CCN(CC2CCN(c3ccc4c(c3)C(=O)N(C3CCC(=O)NC3=O)C4=O)CC2)CC1` (stereo partly drawn) [Example 249, 2-(2,6-dioxopiperidin-3-yl)-5-(4-((4-(1-((S)-2-(2-hydroxyphenyl)-5,6,6a,7,9,10-hexahydro-8H-pyrazino[1′,2′:4,5]pyrazino[2,3-c]pyridazin-8-yl)propan-2-yl)piperidin-1-yl)methyl)piperidin-1-yl)isoindoline-1,3-dione]: in experiment [1], the DC50 is < 10 nM and the Dmax was > 85%. Further, in experiment [2], the DC50 is < 10 nM and the Dmax is > 85%.

For `CC1(CN2CCN3c4cc(-c5ccccc5O)nnc4NC[C@H]3C2)CCN(CC2CCN(c3ccc4c(c3)CN(C3CCC(=O)NC3=O)C4=O)CC2)CC1` (stereo partly drawn) [Example 250, 3-(5-(4-((4-(((S)-2-(2-hydroxyphenyl)-5,6,6a,7,9,10-hexahydro-8H-pyrazino[1′,2′:4,5]pyrazino[2,3-c]pyridazin-8-yl)methyl)-4-methylpiperidin-1-yl)methyl)piperidin-1-yl)-1-oxoisoindolin-2-yl)piperidine-2,6-dione], in experiment [1], the DC50 is < 10 nM and the Dmax was > 85%. For the same molecule, in experiment [2], the DC50 was < 10 nM and the Dmax is > 85%.

In the case of `COC1(CN2CCN3c4cc(-c5ccccc5O)nnc4NC[C@H]3C2)CCN(CC2CCN(c3ccc4c(c3)CN(C3CCC(=O)NC3=O)C4=O)CC2)CC1` (stereo partly drawn) [Example 251, 3-(5-(4-((4-(((S)-2-(2-hydroxyphenyl)-5,6,6a,7,9,10-hexahydro-8H-pyrazino[1′,2′:4,5]pyrazino[2,3-c]pyridazin-8-yl)methyl)-4-methoxypiperidin-1-yl)methyl)piperidin-1-yl)-1-oxoisoindolin-2-yl)piperidine-2,6-dione], in experiment [1], the DC50 is < 10 nM and the Dmax is > 85%. In experiment [2], the DC50 was < 10 nM and the Dmax is > 85%.

As to `COC1(CN2C[C@@H]3[C@@H](CN4CCN5c6cc(-c7ccccc7O)nnc6NC[C@H]5C4)[C@@H]3C2)CCN(c2ccc3c(c2)C(=O)N(C2CCC(=O)NC2=O)C3)CC1` (stereo partly drawn) [Example 252, 3-(6-(4-(((1R,5S,6s)-6-(((S)-2-(2-hydroxyphenyl)-5,6,6a,7,9,10-hexahydro-8H-pyrazino[1′,2′:4,5]pyrazino[2,3-c]pyridazin-8-yl)methyl)-3-azabicyclo[3.1.0]hexan-3-yl)methyl)-4-methoxypiperidin-1-yl)-1-oxoisoindolin-2-yl)piperidine-2,6-dione], the DC50 in experiment [1] and in experiment [2] was < 10 nM each time. The Dmax in experiment [1] and in experiment [2] was > 85% each time.

In the case of `O=C1CCC(N2C(=O)c3ccc(N4CCC(CN5CCC(NC6CCN7c8cc(-c9ccccc9O)nnc8NCC7C6)CC5)CC4)cc3C2=O)C(=O)N1` (centres unmarked) [Example 253, 2-(2,6-dioxopiperidin-3-yl)-5-(4-((4-((2-(2-hydroxyphenyl)-6,6a,7,8,9,10-hexahydro-5H-pyrido[1′,2′:4,5]pyrazino[2,3-c]pyridazin-8-yl)amino)piperidin-1-yl)methyl)piperidin-1-yl) isoindoline-1,3-dione], the DC50 was < 10 nM in experiment [1] and 10 to 100 nM in experiment [2]. In addition, the Dmax in experiment [1] and in experiment [2] was 50 to 75% each time.

In the case of `CN(CC1CCN(CC2CCN(c3ccc4c(c3)C(=O)N(C3CCC(=O)NC3=O)C4=O)CC2)CC1)C1CCN2c3cc(-c4ccccc4O)nnc3NCC2C1` (centres unmarked) [Example 254, 2-(2,6-dioxopiperidin-3-yl)-5-(4-((4-(((2-(2-hydroxy-phenyl)-6,6a,7,8,9,10-hexahydro-5H-pyrido[1′,2′:4,5]pyrazino[2,3-c]pyridazin-8-yl)(methyl)amino)methyl)piperidin-1-yl)methyl)piperidin-1-yl)isoindoline-1,3-dione], the figures for the DC50 in experiment [1] and in experiment [2] were < 10 nM and 10 to 100 nM, respectively. The greatest degradation seen (Dmax) in experiment [1] fell in the range of 50 to 75%; in experiment [2], 75 to 85%.

For `O=C1CCC(N2Cc3cc(OCCN4CCCC(CN5CCN6c7cc(-c8ccccc8O)nnc7NC[C@H]6C5)C4)ccc3C2=O)C(=O)N1` (stereo partly drawn) [Example 255, 3-(5-(2-(3-(((S)-2-(2-hydroxyphenyl)-5,6,6a,7,9,10-hexahydro-8H-pyrazino[1′,2′:4,5]pyrazino[2,3-c]pyridazin-8-yl)methyl)piperidin-1-yl)ethoxy)-1-oxoisoindolin-2-yl)piperidine-2,6-dione], the DC50 in experiment [1] was in the range of 10 to 100 nM; in experiment [2], 100 to 1000 nM. In addition, the figures for the Dmax in experiment [1] and in experiment [2] were 75 to 85% and ≤ 50%, respectively.

With `O=C1CCC(N2Cc3cc(OCCN4CCC(N5CCN6c7cc(-c8ccccc8O)nnc7NC[C@H]6C5)C4)ccc3C2=O)C(=O)N1` (stereo partly drawn) [Example 256, 3-(5-(2-(3-((S)-2-(2-hydroxyphenyl)-5,6,6a,7,9,10-hexahydro-8H-pyrazino[1′,2′:4,5]pyrazino[2,3-c]pyridazin-8-yl)pyrrolidin-1-yl)ethoxy)-1-oxoisoindolin-2-yl)piperidine-2,6-dione], in experiment [1], the DC50 was in the range of 10 to 100 nM and the Dmax was in the range of 50 to 75%. Further, in experiment [2], the DC50 lay in the range of 10 to 100 nM and the Dmax lay in the range of 50 to 75%.

`CC1(C)CN(CC2CCN(c3ccc4c(c3)C(=O)N(C3CCC(=O)NC3=O)C4=O)CC2)CCC1CN1CCN2c3cc(-c4ccccc4O)nnc3NC[C@H]2C1` (stereo partly drawn) [Example 257, 2-(2,6-dioxopiperidin-3-yl)-5-(4-((4-(((S)-2-(2-hydroxyphenyl)-5,6,6a,7,9,10-hexahydro-8H-pyrazino[1′,2′:4,5]pyrazino[2,3-c]pyridazin-8-yl)methyl)-3,3-dimethylpiperidin-1-yl)methyl)piperidin-1-yl)isoindoline-1,3-dione]: the DC50 in experiment [1] and in experiment [2] was < 10 nM each time. For the same molecule, the Dmax in experiment [1] and in experiment [2] was > 85% in each case.

`O=C1CCC(N2C(=O)c3ccc(N4CC5(CC(N6C[C@@H]7[C@@H](CN8CCN9c%10cc(-c%11ccccc%11O)nnc%10NC[C@H]9C8)[C@@H]7C6)C5)C4)cc3C2=O)C(=O)N1` (stereo partly drawn) [Example 259, 2-(2,6-dioxopiperidin-3-yl)-5-(6-((1R,5S,6s)-6-(((S)-2-(2-hydroxyphenyl)-5,6,6a,7,9,10-hexahydro-8H-pyrazino[1′,2′:4,5]pyrazino[2,3-c]pyridazin-8-yl)methyl)-3-azabicyclo[3.1,0]hexan-3-yl)-2-azaspiro[3.3]heptan-2-yl)isoindoline-1,3-dione]: in experiment [1], the DC50 was < 10 nM and the Dmax is > 85%. In experiment [2], the DC50 was < 10 nM and the Dmax was in the range of 75 to 85%.

Consider `O=C1CCC(N2C(=O)c3ccc(N4CCC(CN5CCC(CN6CCN7c8cc(-c9ccccc9O)nnc8NC[C@H]7C6)C(F)(F)C5)CC4)cc3C2=O)C(=O)N1` (stereo partly drawn) [Example 260, 5-(4-((3,3-difluoro-4-(((S)-2-(2-hydroxyphenyl)-5,6,6a,7,9,10-hexahydro-8H-pyrazino[1′,2′:4,5]pyrazino[2,3-c]pyridazin-8-yl)methyl)piperidin-1-yl)methyl)piperidin-1-yl)-2-(2,6-dioxopiperidin-3-yl)isoindoline-1,3-dione], for which, in experiment [1], the DC50 was < 10 nM and the Dmax was 75 to 85%. Moreover, in experiment [2], the DC50 is 10 to 100 nM and the Dmax fell in the range of 75 to 85%.

By DC50 is commonly meant the concentration at which degradation of the target reaches its halfway point. For orientation: Dmax means the largest share of the target that was removed.

Values taken from patent US12448389B2, “BRM targeting compounds and associated methods of use” (Prelude Therapeutics Incorporated, priority 2020, dated 2025).
